Results as given in patent publication US8216785B2, “Method for detecting neuroblastoma” (Fujifilm Corporation, priority 2008, dated 2012).
Non-standard residues stand in square brackets, D forms with d. Residues, ends and D or L forms follow the SMILES beside them. *: point of attachment. Nle = CCCC[C@H](N)C(=O)O; Cbz = O=C(OCc1ccccc1)*; CH2F = FC*

How the values were obtained:
Format in all cases: cell-based
[1] = test system: LAPTM5 in Ad-LAPTM5-infected GOTO cells; experiment: LAPTM5 accumulation upon blocking proteasomal or lysosomal degradation, Western blot and fluorescent staining; details: treated one day after Ad-LAPTM5 infection for additional one day
Procedure: The cells were treated with a proteasome inhibitor (ALLN or MG132) or a lysosomal degradation inhibitor (Bafilimycin A1 or […]) 1 day later. The cells were recovered 1 day later, the samples were prepared, and Western blot analysis was then carried out. The prepared samples were subjected to SDS-PAGE, and Western blot analysis was carried out using relevant antibodies.
As with the case of (a), the cells were treated, fixed, subjected to the immune reaction using the LAPTM5 antibody, and visualized with the use of the Texas Red complex secondary antibody.
After the control or LAPTM5 siRNA was transfected, the cells were treated as with the case of (a), and the samples were prepared. Western blot analysis was carried out using the LAPTM5 antibody.
(§1) Accordingly, whether or not LAPTM5 would undergo proteasomal or lysosomal proteolysis and whether or not LAPTM5 accumulation would be important for cell death were inspected. One day after Ad-LAPTM5 infection, the cells were treated with a proteasome inhibitor (ALLN or MG132) or a lysosome inhibitor (Bailomycin A1 and NH4Cl) for additional one day. Thereafter, the cells were recovered, samples were prepared, and Western blot analysis was performed. […] Further, this accumulation was also confirmed via fluorescent staining using the LAPTM5 antibody (FIG. 4b). […] Thus, LAPTM5 was considered to undergo proteasomal and lysosomal proteolysis, and LAPTM5 accumulation was considered to be deeply involved with induction of cell death. In order to examine whether or not LAPTM5 accumulation would be essential for induction of cell death, the influence of transfection of siRNA against LAPTM5 was then examined.

[2] = test system: Ad-LAPTM5-infected GOTO cells; experiment: Cell death frequency along with LAPTM5 accumulation, trypan blue exclusion; details: treated one day after Ad-LAPTM5 infection for additional one day
Procedure: As in the case of (a), the cells that had died upon treatment were assayed via trypan blue exclusion. A vertical line represents the standard deviation of two experiments.
as §1

IMR32 cells = experiment: Frequency of dead cells via trypan blue exclusion after adenovirus infection; details: zVAD 100 μM
Procedure: (§2) The cells that had been sowed under the same conditions as in (b) were infected with the same MOIs of Ad-LacZ or Ad-LAPTM5. Also, the cell lines were treated or not treated with the pan-caspase inhibitor, zVAD-fink. The number of dead cells was determined via trypan blue exclusion 2 days and 4 days after infection and was indicated in terms of percentage. A vertical line represents the standard deviation of two experiments.
(§3) In order to inspect whether or not LAPTM5 expression is associated with cell death of neuroblastoma cells, the influence of forced LAPTM5 expression in the neuroblastoma cell line was inspected using the adenovirus-mediated expression system. Cell death and the survival rate were assayed by sowing the cells on a 24-well plate and infecting the cells with the selected MOIs of viruses (multiplicities of infection; PFU/cell). The number of dead cells was determined via trypan blue exclusion 2 or 4 days after infection. The pan-caspase inhibitor, zVAD-fml, was used at a concentration of 100 μM. At least 200 cells were counted in each experiment. The number of survived cells was determined via colorimetric assay using a water-soluble tetrazolium salt (the cell counting kit-8; Dojindo Laboratories).

GOTO cells [3] = experiment: as above; details: zVAD 100 μM
Procedure: as §2, §3

GOTO cells [4] = experiment: Treatment with MPP+ or H2O2: cell death, LAPTM5 expression (quantitative RT-PCR), MYCN expression (Western blot); details: for LAPTM5 expression / frequency of cell death: MPP+ 1 or 2 mM 24 hours, H2O2 100 or 200 uM 48 hours; for MYCN expression: MPP+ or H2O2 treatment
Procedure: In FIG. 5(a), the GOTO cells were treated with MPP+ (1 or 2 mM) for 24 hours or with H2O2 (100 or 200 uM) for 48 hours. Thereafter, the dead cells were assayed via trypan blue exclusion. The LAPTM5 expression level was analyzed via quantitative RT-PCR. A vertical line represents the standard deviation of two experiments.
The prepared samples were subjected to SDS-PAGE, and Western blot analysis was carried out using relevant antibodies.
The cause for NB cell degeneration upon regression of favorable NB tumors has not yet been elucidated. […] This indicates a common mechanism between NB tumor regression and cell degeneration in the case of neurodegenerative diseases. Mitochondrial injury and oxidative stress are known to be deeply involved in neuron degeneration in the case of neurodegenerative disease. […] MYCN proteins are known to not only activate but also suppress transcription of various target genes. Accordingly, MYCN proteins that have been activated via amplification were considered to suppress activation of LAPTM5 transcription induced by stress. Thus, whether or not MYCN would directly bind to a site in the vicinity of the transcription initiation point of the LAPTM5 gene was inspected via ChIP assay. […] Meanwhile, the IMR32 cell line is known to differentiate into nerve cells via treatment with retinoic acid.

[5] = test system: GOTO cells that stably express GFP-LC3; experiment: Treatment with an LMP inducer, immunoblot of GFP-LC3 type II and p62/SQSTM1; details: CPX 100 or 300 μg/ml
Procedure: The GOTO cells (1×10^6 cells/well) that stably express GFP-LC3 were sowed on a 6-well plate and treated with ciprofloxican (CPX) (100 or 300 μg/ml) or a solvent thereof (0.1N hydrochloric acid) so as to induce LMP. The total cell extract obtained from the treated cells was electrophoresed via SDS-PAGE and subjected to immunoblot analysis using antibodies reacting with relevant proteins.
LAPTM5 is known to be a membrane protein that localizes in the lysosome. […] Such changes in LTR staining patterns result from LMP, which indicates destabilization and destruction of the lysosome. LMP was observed along with an increase in LAPTM5-induced cell death (2.7 times in GOTO cell (p=0.0007) and 5.4 times in IMR32 cell (p=0.0108), compared with Ad-LacZ cell; FIG. 11). […] Accordingly, LAPTM5-induced LMP was deduced to induce blocking of the autophagy pathway. […] In conformity with the results of in vitro observation, elevated expression of p62/SQSTM1, ubiquitinated proteins, and cathepsin D was also observed via immunohistological staining (FIG. 3f). […] At the same time, lysosome instability induced by LAPTM5 was considered to induce accumulation of immature autophagic vesicles and ubiquitinated proteins.

CO/C1=C\C(C)=C\[C@@H](C)[C@@H](O)[C@@H](C)C/C(C)=C/C=C/[C@H](OC)[C@@H]([C@@H](C)[C@@H](O)[C@H](C)[C@@]2(O)C[C@@H](O)[C@H](C)[C@@H](C(C)C)O2)OC1=O [Bafilomycin A1]
accumulation of expressed LAPTM5 [1]: significantly accumulated | cell death frequency [2]: significantly increased

COC(=O)C[C@H](NC(=O)[C@H](C)NC(=O)[C@@H](NC(=O)OCc1ccccc1)C(C)C)C(=O)CF [zVAD-fmk] (Cbz-Val-Ala-Asp(OMe)-CH2F)
inhibition of Ad-LAPTM5-induced cell death by caspase inhibitor (IMR32 cells): would not be inhibited | inhibition of Ad-LAPTM5-induced cell death by caspase inhibitor (GOTO cells [3]): would not be inhibited

C[n+]1ccc(-c2ccccc2)cc1 [MPP+, 1-methyl-4-phenylpridinium]
LAPTM5 expression (GOTO cells [4]): activated | frequency of cell death (GOTO cells [4]): frequency of concentration-dependent cell death increased | MYCN expression (GOTO cells [4]): decrease

O=C(O)c1cn(C2CC2)c2cc(N3CCNCC3)c(F)cc2c1=O [ciprofloxacin]
LC3-II detection [5]: LC3-II was detected | p62/SQSTM1 protein accumulation [5]: p62/SQSTM1 protein accumulation was observed

CC(C)C[C@@H](C=O)NC(=O)[C@H](CC(C)C)NC(=O)[C@H](CC(C)C)NC(=O)OCc1ccccc1 [MG132] (Cbz-Leu-Leu-Leu-aldehyde)
accumulation of expressed LAPTM5 [1]: significantly accumulated | cell death frequency [2]: significantly increased

CCCC[C@@H](C=O)NC(=O)[C@H](CC(C)C)NC(=O)[C@H](CC(C)C)NC(C)=O [ALLN] (Ac-Leu-Leu-[Nle]-aldehyde)
accumulation of expressed LAPTM5 [1]: significantly accumulated | cell death frequency [2]: significantly increased

Cl.N [NH4Cl]
accumulation of expressed LAPTM5 [1]: significantly accumulated | cell death frequency [2]: significantly increased

OO [H2O2]
LAPTM5 expression (GOTO cells [4]): activated | frequency of cell death (GOTO cells [4]): frequency of concentration-dependent cell death increased | MYCN expression (GOTO cells [4]): decrease
